Data taken from US20210161804A1, “FLUTICASONE AND VILANTEROL FORMULATION AND INHALER” (KINDEVA DRUG DELIVERY L.P., priority 2018, published 2021).

Tests used:
[1] = Next Generation Impactor (NGI) aerodynamic particle size distribution; assay type: physicochemical
Description: The aerodynamic particle size distribution emitted from each MDI was evaluated using a Next Generation Impactor Instrument (MSP Corporation, Shoreview, Minn.). For each test, an MDI was attached to the throat component (Emmace anatomical throat, Emmace Consulting, Lund, Sweden) of the NGI instrument and actuated 6 times into the instrument. Prior to each actuation the MDI was vigorously shaken Immediately prior to attachment, the MDI was primed by actuating 4 times. Prior to each priming shot the MDI was vigorously shaken. The flow rate through the instrument during testing was regulated at 30 L/minute. The test sample (fluticasone furoate and vilanterol trifenatate) deposited on the valve stem, actuator, throat assembly (Emmace anatomical throat), individual uncoated collection cups 1-7, micro-orifice collector (MOC), and final filter component was collected by rinsing each individual component with a known volume of collection solvent. The recovered samples were then analyzed for sample content using an HPLC assay with reference to a known standard. An HPLC instrument with a UV detector (220 nm at 0 minutes, 240 nm at 5 minutes) and a symmetry shield RP-18, 4.6-150 mm column (25° C. column temp) was used. The mobile phase was 10 mM SDS, 60:40 (v/v) […]:50 mM NH4OAc, pH 5.5). The injection volume was 50 microliters and the flow rate was 1.0 mL/min.
In Table 1 the fine particle mass (FPM), impactor sized mass (ISM), mass median aerodynamic diameter (MMAD), and throat hold up data for fluticasone furoate (FF) and vilanterol trifenatate (VT) is presented. At each time point 3 individual MDIs were tested and the result is presented as the mean value.
Total Ex-valve content was determined as the sum of the sample content from all twelve analyzed components (valve stem through filter) (reported as micrograms/actuation).
Throat hold up was determined as the ratio of the sample content from the throat assembly divided by the total ex-valve content.
Aerodynamic particle size from a Relvar® Ellipta® 92/22 (fluticasone furoate/vilanterol trifenatate) dry powder inhaler was evaluated as described above for NGI studies with the following changes. The Relvar device was not primed prior to analysis, nor was it shaken prior to actuation. For each test the Relvar was actuated once. An adaptor was prepared and used to obtain a good fit between device mouthpiece and the Emmace throat. A flow rate of approximately 80 L/min was used to achieve a 4 kPa pressure drop in the NGI. A pre-separator was used between the throat assembly and cup 1. Cups 1 to 7 were pre-coated with 50:50 (v/v) glycerol:methanol.
In tables 1-8 above, FPM and ISM are reported as micrograms (mcg) per actuation and MMAD is reported in microns (um). FPM (Fine Particle Mass) was determined as the sum of the sample content determined for cups 3-7, the MOC, and the filter. ISM (Impactor Sized Mass) was determined as the sum of the sample content determined for cups 2-7, the MOC, and the filter. In the examples, the concentrations of fluticasone furoate, vilanterol trifenatate, ethanol, and HFA-227 in the suspension formulations are reported as weight percent (wt. %).

[2] = Through life delivered dose (unit spray collection apparatus); assay type: physicochemical; conditions: beginning, middle, end of unit, 3 MDIs, 28.3 L/minute
Description: The through life delivered dose was determined using standard unit spray collection apparatus (USCA) fitted with a filter. For each determination, an MDI was attached to the USCA using a coupler. Immediately prior to attachment, the MDI was vigorously shaken. Prior to collection of the test sample, the MDI was primed by actuating four times and before each priming actuation the MDI was vigorously shaken. For each example tested, three MDIs were used. Each MDI was tested with a single actuation into the instrument at the beginning, middle, and end of the unit resulting in 3 actuations per MDI (9 actuations total). The flow rate through the equipment was regulated to 28.3 L/minute+/−0.5 L/minute. The test sample deposited in the USCA was collected by rinsing with a known volume of collection solvent. The recovered samples were then analyzed for sample content using an HPLC assay with reference to a known standard. An HPLC instrument with a UV detector (220 nm at 0 minutes, 240 nm at 5 minutes) and a symmetry shield RP18, 150 mm×4.6 mm (3.5 microns) column (temperature 25° C.) was used. The mobile phase was 10 mM SDS (sodium dodecyl sulphate), 60:40 (v/v) acetetonitrile:50 mM NH4OAc (ammonium acetate), pH 5.50. The injection volume was 50 microliters and the flow rate was 1.0 mL/minute.

[3] = Comparative Example 1: Relvar Ellipta 92/22 dry powder inhaler, actuated once, approximately 80 L/min (4 kPa), pre-separator
[4] = Comparative Example 1: Relvar Ellipta 92/22 dry powder inhaler, approximately 80 L/min (4 kPa), pre-separator
[5] = MDI of Example 1: FF MMD about 3.7 microns, VT MMD about 1.4 microns, HFA-227, 30 L/minute
[6] = MDI of Example 1: FF MMD about 3.7 microns, VT MMD about 1.4 microns, HFA-227, 30 L/minute, Emmace anatomical throat
[7] = MDI of Example 1: FF MMD about 3.7 microns, VT MMD about 1.4 microns, HFA-227, per actuation, 30 L/minute
[8] = MDI of Example 1: FF MMD about 3.7 microns, VT MMD about 1.4 microns, HFA-227, per actuation, 30 L/minute, mean of 3 MDIs
[9] = MDI of Example 2: FF MMD about 2.9 microns, VT MMD about 1.4 microns, HFA-227, 30 L/minute
[10] = MDI of Example 2: FF MMD about 2.9 microns, VT MMD about 1.4 microns, HFA-227, per actuation, 30 L/minute
[11] = MDI of Example 3: FF MMD about 3.7 microns, VT MMD about 4.2 microns, HFA-227, 30 L/minute
[12] = MDI of Example 3: FF MMD about 3.7 microns, VT MMD about 4.2 microns, HFA-227, per actuation, 30 L/minute
[13] = MDI of Example 4: FF MMD about 2.9 microns, VT MMD about 3.4 microns, HFA-227, 30 L/minute
[14] = MDI of Example 4: FF MMD about 2.9 microns, VT MMD about 3.4 microns, HFA-227, per actuation, 30 L/minute
[15] = MDI of Example 5: FF micronized MMD about 2.0 microns, VT high pressure homogenized MMD about 1.4 microns, HFA-227, 30 L/minute
[16] = MDI of Example 5: FF micronized MMD about 2.0 microns, VT high pressure homogenized MMD about 1.4 microns, HFA-227, per actuation, 30 L/minute
[17] = MDI of Example 6: FF MMD about 2.9 microns, VT MMD about 1.4 microns, 0.05% ethanol, HFA-227, 30 L/minute
[18] = MDI of Example 6: FF MMD about 2.9 microns, VT MMD about 1.4 microns, 0.05% ethanol, HFA-227, per actuation, 30 L/minute
[19] = MDI of Example 7: FF MMD about 2.9 microns, VT MMD about 1.4 microns, 0.5% ethanol, HFA-227, 30 L/minute
[20] = MDI of Example 7: FF MMD about 2.9 microns, VT MMD about 1.4 microns, 0.5% ethanol, HFA-227, per actuation, 30 L/minute
[21] = MDIs of Example 8 (58 microliter primeless valve, no ethanol, HFA-227)
[22] = MDIs of Example 9 (58 microliter primeless valve, 0.05% ethanol, HFA-227)
[23] = MDIs of Example 10 (58 microliter primeless valve, 0.5% ethanol, HFA-227)

Row | Compound | FPM (fine particle mass) [1, 3] [µg] | ISM (impactor sized mass) [1, 3] [µg] | MMAD (mass median aerodynamic diameter) [1, 4] [um] | Throat hold up [1, 4] [%] | MMAD (mass median aerodynamic diameter) [1, 5] [um] | Throat hold up [1, 6] [%] | ISM (impactor sized mass) [1, 7] [µg] | FPM (fine particle mass) [1, 8] [µg] | MMAD (mass median aerodynamic diameter) [1, 9] [um] | Throat hold up [1, 9] [%] | FPM (fine particle mass) [1, 10] [µg] | ISM (impactor sized mass) [1, 10] [µg] | MMAD (mass median aerodynamic diameter) [1, 11] [um] | Throat hold up [1, 11] [%] | FPM (fine particle mass) [1, 12] [µg] | ISM (impactor sized mass) [1, 12] [µg] | MMAD (mass median aerodynamic diameter) [1, 13] [um] | Throat hold up [1, 13] [%] | FPM (fine particle mass) [1, 14] [µg] | ISM (impactor sized mass) [1, 14] [µg] | further results
1 | C[C@@H]1C[C@H]2[C@@H]3C[C@H](F)C4=CC(=O)C=C[C@]4(C)[C@@]3(F)[C@@H](O)C[C@]2(C)[C@@]1(OC(=O)c1ccco1)C(=O)SCF [FF, fluticasone furoate] | 26.5 | 31.5 | 3.4 | 26.0 | 3.5 | 52.8 | 27.7 | 19.6 | 3.1 | 38.8 | 27.0 | 35.9 | 4.0 | 47.0 | 25.0 | 37.5 | 3.2 | 43.0 | 28.5 | 38.4 | MMAD (mass median aerodynamic diameter) [1, 15]: 2.9 um; Throat hold up [1, 15]: 31.5%; FPM (fine particle mass) [1, 16]: 30.2 µg; ISM (impactor sized mass) [1, 16]: 35.7 µg; MMAD (mass median aerodynamic diameter) [1, 17]: 3.2 um; Throat hold up [1, 17]: 48.6%; FPM (fine particle mass) [1, 18]: 23.1 µg; ISM (impactor sized mass) [1, 18]: 31.5 µg; MMAD (mass median aerodynamic diameter) [1, 19]: 3.0 um; Throat hold up [1, 19]: 46.0%; FPM (fine particle mass) [1, 20]: 26.3 µg; ISM (impactor sized mass) [1, 20]: 34.9 µg; mean through life delivered dose [2, 21]: 57.1 micrograms/actuation; mean through life delivered dose [2, 22]: 55.5 micrograms/actuation; mean through life delivered dose [2, 23]: 58.0 micrograms/actuation
2 | OCc1cc([C@@H](O)CNCCCCCCOCCOCc2c(Cl)cccc2Cl)ccc1O [VT, vilanterol trifenatate] | 11.6 | 12.3 | 1.8 | 16.1 | 1.9 | 34.0 | 10.8 | 10.0 | 2.0 | 28.5 | 9.9 | 10.8 | 3.7 | 43.4 | 6.5 | 8.9 | 3.1 | 41.0 | 7.5 | 9.8 | MMAD (mass median aerodynamic diameter) [1, 15]: 2.6 um; Throat hold up [1, 15]: 31.1%; FPM (fine particle mass) [1, 16]: 8.4 µg; ISM (impactor sized mass) [1, 16]: 9.5 µg; MMAD (mass median aerodynamic diameter) [1, 17]: 2.0 um; Throat hold up [1, 17]: 37.8%; FPM (fine particle mass) [1, 18]: 8.9 µg; ISM (impactor sized mass) [1, 18]: 9.9 µg; MMAD (mass median aerodynamic diameter) [1, 19]: 2.0 um; Throat hold up [1, 19]: 36.1%; FPM (fine particle mass) [1, 20]: 10.3 µg; ISM (impactor sized mass) [1, 20]: 11.2 µg; mean through life delivered dose [2, 21]: 13.8 micrograms/actuation; mean through life delivered dose [2, 22]: 13.3 micrograms/actuation; mean through life delivered dose [2, 23]: 14.4 micrograms/actuation
